{"source": "patent US12514894B2", "about": "“Traditional Chinese medicine composition for preventing and treating diabetes, traditional Chinese medicine preparation, and use thereof” (ZHEJIANG CHINESE MEDICAL UNIVERSITY, priority 2022, dated 2026)", "key": {"[1]": {"tested_on": "mouse bone marrow polychromatic erythrocytes (PCEs)", "conditions": "CP 0.04 g/(kg · BW)", "protocol": "The test solutions of each dose group were prepared by diluting 2.5, 5.0, and 10.0 mL of TCM decoction to 20 mL with purified water, respectively (each equivalent to 25, 50, and 100 times the recommended daily intake of an adult). For a positive control, 0.04 g of cyclophosphamide (CP) was diluted with purified water to 20 mL for later use. Fifty ICR mice weighing 25.1-30.0 g were randomly divided into three sample dose groups of 2.5, 5.0 and 10.0 mL/(kg·BW), a solvent control group (purified water) and a positive control group [CP 0.04 g/(kg·BW)] by gender and body weight, with 10 mice in each group, half male and half female. The gavage capacity was 20 mL/(kg·BW) each time, and the femoral bone marrow was suspended in calf serum for direct smear, methanol fixation, and Giemsa staining 6 h after the second gastric gavage. […] The number of normochromatic erythrocytes (NCEs) observed was counted while 200 PCEs per animal was observed. The ratio of both (PCE/NCE) was calculated. The results are as follows (see Table 1)."}, "mouse sperm": {"tested_on": "mouse sperm", "conditions": "CP 0.04 g/(kg · BW), 5 days gavage, day 35", "protocol": "The dose planning and preparation methods of the positive control and samples are shown in the in vivo micronucleus assay in mouse bone marrow. Twenty-five healthy male ICR mice weighing 25.3-29.8 g were randomly divided into three sample dose groups of 2.5, 5.0 and 10.0 mL/(kg·BW), a solvent control group (purified water), and a positive control group [CP 0.04 g/(kg-BW)] by body weight, with five mice in each group. Animals in each group were given gastric gavage once a day for five consecutive days, and the gavage capacity was 20 mL/(kg·BW). At 35 days after the first administration of the test solution, the mice were sacrificed, bilateral epididymides were removed, and the epididymides were cut longitudinally with ophthalmic scissors, filtered, smeared, dried, fixed with methanol, stained with 2% (m:V) eosin, and microscopically observed."}, "[2]": {"tested_on": "Salmonella typhimurium TA97a", "assay": "Ames test, strain TA97a", "assay_type": "cell-based", "conditions": "Test 2", "protocol": "(§1) The TCM decoction (20 mL) was sterilized at 121° C. for 20 min as a test solution. During the test, 0.1 mL of the test solution was added to each dish in the highest dose group, namely 5 μL/dish, and there was no contamination or inhibition during the pre-test. In the formal test, the test solution in the highest dose group was serially diluted 5 times with sterile purified water successively, and prepared into four test solutions with doses of 1, 0.2, 0.04, and 0.008 μL/dish, and five sample dose groups were formed. In addition, a solvent control group (sterile purified water), a blank control group (spontaneous reverse mutation group) and four positive control groups were set up. The solvents and dosages required for the preparation of positive controls sodium azide, Dexon, 2-aminofluorene and 1,8-dihydroxyanthraquinone are shown in Table 1. Sequentially, 0.1 mL each of the fresh enrichment broth of tester strain and the test solution were added into a top-layer culture medium held in a 45° C. water bath, 0.5 mL of 10% (V:V) S9 mixture was added when activated, and an equal volume of 0.2 mol/L pH7.4 phosphate buffer saline (PBS) was added without activation; after mixing well, the mixture was rapidly poured onto the bottom-layer culture medium, and the plate was rotated to uniformly distribute the top-layer culture medium on the bottom layer. […]"}, "[3]": {"tested_on": "standard tester strains TA97a, TA98, TA100, and TA102", "assay": "Ames test, conclusion over the four tester strains", "assay_type": "cell-based, Salmonella typhimurium", "conditions": "each of four strains, regardless of addition of S9, two duplicate tests", "protocol": "as §1"}, "[4]": {"tested_on": "Salmonella typhimurium TA100", "assay": "Ames test, strain TA100", "assay_type": "cell-based", "conditions": "Test 2", "protocol": "as §1"}, "[5]": {"tested_on": "Salmonella typhimurium TA102", "assay": "Ames test, strain TA102", "assay_type": "cell-based", "conditions": "Test 2", "protocol": "as §1"}, "[6]": {"tested_on": "SD rats with diabetes of dampness-heat pattern", "assay": "Lowering of blood glucose in rats with type 2 diabetes", "assay_type": "in vivo, rat", "text": "Dose Planning: Low-, medium- and high-dose groups were designed in this experiment: 10 g (crude drug)/kg, 20 g (crude drug)/kg, and 40 g (crude drug)/kg. The dose groups were given by gastric gavage for 30 consecutive days, and the control group was given an equal quantity of normal saline.\nSD rats with diabetes of dampness-heat pattern were modeled with reference to the 2014 edition of the Ideas and Methods of Clinical-mimetic Research on Integrated Animal Models of Disease and Syndrome. The specific method was as follows: Sixty specific pathogen-free (SPF) grade male Sprague-Dawley (SD) rats weighing 160-180 g were selected, 10 male SD rats were assigned to a normal control group, and the rest 50 ones were fasted but not deprived of water for 16-18 h (21:00 PM to 14:00 PM the next day); STZ was prepared into a 1.0% solution with […] citric acid buffer (pH=4.2, 4° C.), and the rats were fed with high-sugar and high-fat diet on Day 3 after tail vein injection of 10 mg kg^−1 STZ; the type 2 diabetes model was replicated by continuous high-sugar and high-fat feeding for 6-8 weeks (impaired glucose tolerance was deemed as successful modeling), and the normal control group was fed with normal diet. Later, after all rats were fed with normal animal feed and normally drank water for one week, they fasted but not deprived of water for 12 h; the tails of the rats were disinfected with alcohol, and the fasting plasma glucose of the rats was measured by tail vein blood sampling. […] After the successful modeling, the rats were given normal animal feed and access to water ad libitum for one week, so as to detect the stability of the model.\nAfter the successful modeling, 50 rats were divided into a model control group, a positive control group, a low-dose TCM decoction group, a medium-dose TCM decoction group, and a high-dose TCM decoction group. Ten rats in the blank control group were given access to ordinary animal feed and water ad libitum, and an equal volume of normal saline was administered daily by gastric gavage. Ten rats in the model control group were given access to ordinary animal feed and water ad libitum, and an equal volume of normal saline was administered daily by gastric gavage. Ten rats in the positive control group were given access to ordinary animal feed and water ad libitum, and 0.25 g/kg metformin was administered daily by gastric gavage. Ten rats in the low-dose TCM decoction group were given access to ordinary animal feed and water ad libitum, and 10 g (crude drug)/kg TCM decoction was administered daily by gastric gavage. Ten rats in the medium-dose TCM decoction group were given access to ordinary animal feed and water ad libitum, and 20 g (crude drug)/kg TCM decoction was administered daily by gastric gavage. Ten rats in the high-dose TCM decoction group were given access to ordinary animal feed and water ad libitum, and 40 g (crude drug)/kg TCM decoction was administered daily by gastric gavage. All rats were fed for a total of 30 days. Rat body weight, fasting plasma glucose, and insulin level were measured before and after SD rat modeling and after gastric gavage."}, "[7]": {"tested_on": "Salmonella typhimurium TA98", "assay": "Ames test, strain TA98", "assay_type": "cell-based", "conditions": "Test 2", "protocol": "as §1"}, "[8]": {"conditions": "0.25 g/kg metformin daily by gavage, 30 days"}, "[9]": {"conditions": "positive control and the three TCM decoction dose groups, P<0.05"}, "[10]": {"conditions": "positive control group (0.25 g/kg metformin), baseline"}, "[11]": {"conditions": "positive control group (0.25 g/kg metformin), before treatment"}}, "note": "Read-outs that look alike come from different tables or passages of the source.", "data": [{"compound": "O=P1(N(CCCl)CCCl)NCCCO1", "note": "(centres unmarked) [CP, cyclophosphamide]", "values": [{"measurement": "Frequency of micronucleated cells", "setting": "[1]; female", "value": "15.64 ± 5.16 ‰"}, {"measurement": "Number of micronucleated PCEs", "setting": "[1]; female", "value": 88, "unit": "n"}, {"measurement": "PCE/NCE", "setting": "[1]; female", "value": "1.02 ± 0.18"}, {"measurement": "Frequency of micronucleated cells", "setting": "[1]; male", "value": "17.57 ± 4.87 ‰"}, {"measurement": "Number of micronucleated PCEs", "setting": "[1]; male", "value": 78, "unit": "n"}, {"measurement": "PCE/NCE", "setting": "[1]; male", "value": "1.03 ± 0.16"}, {"measurement": "Abnormality rate", "setting": "mouse sperm", "value": "6.49 ± 0.74", "unit": "%"}, {"measurement": "Total number of abnormal sperms", "setting": "mouse sperm", "value": 357, "unit": "n"}, {"measurement": "Type of abnormal sperms: Amorphous", "setting": "mouse sperm", "value": 157}, {"measurement": "Type of abnormal sperms: Banana-like", "setting": "mouse sperm", "value": 8}, {"measurement": "Type of abnormal sperms: Folded", "setting": "mouse sperm", "value": 6}, {"measurement": "Type of abnormal sperms: Hookless", "setting": "mouse sperm", "value": 169}, {"measurement": "Type of abnormal sperms: Large", "setting": "mouse sperm", "value": 7}, {"measurement": "Type of abnormal sperms: Two-head", "setting": "mouse sperm", "value": 3}, {"measurement": "Type of abnormal sperms: Two-tailed", "setting": "mouse sperm", "value": 7}]}, {"compound": "CN(C)C(=N)N=C(N)N", "note": "[Positive control, metformin]", "values": [{"measurement": "number of revertant colonies", "setting": "[2]; +S9, positive control", "value": "1061 ± 84"}, {"measurement": "number of revertant colonies", "setting": "[2]; −S9, positive control", "value": "1027 ± 98"}, {"measurement": "number of revertant colonies compared with the solvent control", "setting": "[3]", "value": "more than twice that of the corresponding solvent control"}, {"measurement": "number of revertant colonies", "setting": "[4]; TA100, +S9, positive control", "value": "1171 ± 91"}, {"measurement": "number of revertant colonies", "setting": "[4]; TA100, −S9, positive control", "value": "987 ± 117"}, {"measurement": "number of revertant colonies", "setting": "[5]; TA102, +S9, positive control", "value": "1085 ± 91"}, {"measurement": "number of revertant colonies", "setting": "[5]; TA102, −S9, positive control", "value": "973 ± 76"}, {"measurement": "Body weight before administration", "setting": "[6]; [8]", "value": "435.4 ± 25.3", "unit": "g"}, {"measurement": "fasting plasma glucose: Blood glucose after administration", "setting": "[6]; [8]", "value": "6.65 ± 1.39", "unit": "mmol/L"}, {"measurement": "insulin level After administration", "setting": "[6]; [8]", "value": "44.13 ± 5.42", "unit": "uIU/mL"}, {"measurement": "body weight after administration compared with model control group", "setting": "[6]; [9]", "value": "lower than that in the model control group"}, {"measurement": "fasting plasma glucose after administration compared with after modeling", "setting": "[6]; [9]", "value": "significantly lower than that after modeling"}, {"measurement": "insulin levels after administration compared with after modeling", "setting": "[6]; [9]", "value": "significantly lower than those after modeling"}, {"measurement": "Body weight before modeling", "setting": "[6]; [10]", "value": "166.3 ± 10.8", "unit": "g"}, {"measurement": "fasting plasma glucose: Blood glucose before modeling", "setting": "[6]; [10]", "value": "6.02 ± 0.48", "unit": "mmol/L"}, {"measurement": "Body weight after modeling", "setting": "[6]; [11]", "value": "463.5 ± 17.3", "unit": "g"}, {"measurement": "fasting plasma glucose: Blood glucose after modeling", "setting": "[6]; [11]", "value": "20.15 ± 3.23", "unit": "mmol/L"}, {"measurement": "insulin level Before administration", "setting": "[6]; [11]", "value": "73.45 ± 9.45", "unit": "uIU/mL"}, {"measurement": "number of revertant colonies", "setting": "[7]; TA98, +S9, positive control", "value": "1049 ± 94"}, {"measurement": "number of revertant colonies", "setting": "[7]; TA98, −S9, positive control", "value": "1091 ± 78"}]}]}
